Laboratory results reported in ChEMBL document CHEMBL5725267, “Enhancer of zeste homolog 2 inhibitors” (2016).

Assay: Scintillation Proximity Assay (SPA): Protocol 2: Compounds contained herein were evaluated for their ability to inhibit the methyltransferase activity of EZH2 within the PRC2 complex. Human PRC2 complex was prepared by co-expressing each of the 5 member proteins (FLAG-EZH2, EED, SUZ12, RbAp48, AEBP2) in Sf9 cells followed by co-purification. Enzyme activity was measured in a scintillation proximity assay (SPA) where a tritiated methyl group is transferred from 3H-SAM to a lysine residue on a biotinylated, unmethylated peptide substrate derived from histone H3. The peptides were captured on streptavidin-coated SPA beads and the resulting signal was read on a ViewLux plate reader.Part A. Compound Preparation 4. Prepare 10 mM stock of compounds from solid in 100% DMSO. 5. Set up an 11-point serial dilution (1:4 dilution, top concentration 10 mM) in 100% DMSO for each test compound in a 384 well plate leaving columns 6 and 18 for DMSO controls. 6. Dispense 10 nL of compound from the dilution plate into reaction plates (Corning, 384-well polystyrene NBS, Cat#3673). Percent inhibition was calculated relative to the DMSO control for each compound concentration and the resulting values were fit using standard IC50 fitting parameters within the ABASE data fitting software package.
Format: biochemical

Compound	IC50
C/C=C(\CCCN1CCC(N(C)C)CC1)c1scc(C(=O)NCc2c(C)cc(C)[nH]c2=O)c1C	0.2 µM
C/C=C(/c1scc(C(=O)NCc2c(C)cc(C)[nH]c2=O)c1C)[C@H]1CC[C@H](NC(=O)OC(C)(C)C)CC1	0.1 µM
C/C=C(\CCCN1CCN(C)CC1)c1scc(C(=O)NCc2c(C)cc(C)[nH]c2=O)c1C	0.251 µM
C/C=C(\CCN1CCOCC1)c1scc(C(=O)NCc2c(C)cc(C)[nH]c2=O)c1C	1 µM
